# Data taken from US20080318938A1, “METHODS FOR TREATING ABERRANT CELL PROLIFERATION DISORDERS” (priority 2007, published 2008).
# Where two headings read alike, the source gives them in different places.
# What was measured:
# [1] = test system: sst (non-selective) Somatostatin receptor; test: Receptor binding
# bone marrow cells (BMCs) = test: RNA synthesis and cell viability of bone marrow cells from treated rats; type: in vivo; settings: 10 mg/kg daily for 5 days, BMCs isolated 24 hours after last dose
# Experimental: Rats were treated with 10 milligrams per kilogram of Compound TA1-1B daily for five (5) days. Twenty-four (24) hours after the last dose the bone marrow was isolated, and bone marrow cells (BMCs) were tested for RNA synthesis activity and cell viability
# The following process was utilized to measure total RNA synthesis. For animals treated with compound TA1-1B, BMCs were isolated and plated overnight at 100,000 cells per mL. Next day cells were incubated for one hour with 5 μCi of [^3H]-uridine. To measure total RNA synthesis, total RNA from treated cells was isolated with a RNease kit (QIAGEN), levels of total RNA were assessed with Ribogreen reagent (Invitrogen) and the newly synthesized tritiated RNA was measured in a scintillation Counter (Perkin Elmer) in a tritium channel.
# The following process was utilized to measure cell viability, which involves the use of an Alamar Blue dye. Cells are counted using a hemocytometer, and 4,000-5,000 cells (per well) in 100 microliter of medium are seeded into wells 96-well plate. […] Fluorescence is recorded at an excitation wavelength of 544 nm and emission wavelength of 590 nm using a microplate reader. Fluorescence of […] dye is detected and effects of drug treatment on BMC viablity is determined.
# [2] = Tissue distribution in rats (in vivo pharmacokinetic study); parameters: species or system Sprague Dawley rats
# Experimental: Five groups (three animals per group) of male Sprague Dawley rats were assigned for in vivo pharmacokinetic study. • Group-1 animals were dosed intravenously with compound TA1-1B at 7.5 mg/kg and after 2 hr post-dose animals were terminated and whole blood, plasma, brain, bone marrow and adrenal gland collected. • Group-2 animals were dosed intravenously with compound TA1-1B at 7.5 mg/kg for five consecutive days. After 2 hr of the last dose (98 hr) animals were terminated and whole blood, plasma, brain, bone marrow and adrenal gland collected. • Group-3 animals were dosed intravenously with compound TA1-1B at 7.5 mg/kg for five consecutive days. After 26 hr of the last dose (122 hr) animals were terminated and whole blood, plasma, brain, bone marrow and adrenal gland collected. • Group-4 animals were dosed intravenously with compound TA1-1B at 7.5 mg/kg for five consecutive days. After 50 hr of the last dose (146 hr) animals were terminated and whole blood, plasma, brain, bone marrow and adrenal gland collected. • Group-5 animals were dosed intravenously with vehicle, terminated and whole blood, plasma, brain, bone marrow and adrenal gland collected. Tissues obtained from this group of animals were used for corresponding matrix preparation in subsequent bioanalysis.
# After administration the compound TA1-1B quickly reaches those tissues (after 2 hr) and subsequently gets cleared.
# M2 Muscarinic receptor = M2 Muscarinic receptor (Homo sapiens, UniProt P08172); test: Receptor binding
# M2 Muscarinic receptor, sequence (P08172 whole entry): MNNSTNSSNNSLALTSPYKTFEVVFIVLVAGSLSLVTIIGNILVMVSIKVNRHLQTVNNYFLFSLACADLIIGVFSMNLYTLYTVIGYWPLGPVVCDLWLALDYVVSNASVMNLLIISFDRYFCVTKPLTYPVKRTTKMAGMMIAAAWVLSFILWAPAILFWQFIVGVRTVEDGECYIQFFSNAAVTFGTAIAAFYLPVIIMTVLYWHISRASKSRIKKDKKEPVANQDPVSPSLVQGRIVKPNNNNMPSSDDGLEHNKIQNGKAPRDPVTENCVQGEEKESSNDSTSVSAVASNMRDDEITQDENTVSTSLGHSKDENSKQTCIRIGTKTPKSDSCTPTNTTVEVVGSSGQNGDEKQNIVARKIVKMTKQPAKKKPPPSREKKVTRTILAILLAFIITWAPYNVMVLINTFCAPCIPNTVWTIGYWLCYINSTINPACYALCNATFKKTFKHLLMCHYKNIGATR
# M1 Muscarinic receptor = M1 Muscarinic receptor (Homo sapiens, UniProt P11229); test: Receptor binding
# M1 Muscarinic receptor, sequence (P11229 whole entry): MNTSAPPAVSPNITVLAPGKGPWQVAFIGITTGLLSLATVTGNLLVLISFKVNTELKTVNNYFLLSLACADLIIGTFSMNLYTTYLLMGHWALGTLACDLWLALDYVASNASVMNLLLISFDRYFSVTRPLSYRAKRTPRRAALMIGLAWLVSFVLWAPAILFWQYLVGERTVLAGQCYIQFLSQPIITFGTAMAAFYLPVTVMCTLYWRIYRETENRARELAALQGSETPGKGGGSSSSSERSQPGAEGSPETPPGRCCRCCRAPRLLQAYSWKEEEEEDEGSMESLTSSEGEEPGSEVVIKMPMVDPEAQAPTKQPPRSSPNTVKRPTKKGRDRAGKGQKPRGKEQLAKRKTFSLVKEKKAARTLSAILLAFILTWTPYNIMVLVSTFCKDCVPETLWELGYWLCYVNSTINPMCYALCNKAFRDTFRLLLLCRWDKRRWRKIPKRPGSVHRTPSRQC
# M4 Muscarinic receptor = M4 Muscarinic receptor (Homo sapiens, UniProt P08173); test: Receptor binding
# M4 Muscarinic receptor, sequence (P08173 whole entry): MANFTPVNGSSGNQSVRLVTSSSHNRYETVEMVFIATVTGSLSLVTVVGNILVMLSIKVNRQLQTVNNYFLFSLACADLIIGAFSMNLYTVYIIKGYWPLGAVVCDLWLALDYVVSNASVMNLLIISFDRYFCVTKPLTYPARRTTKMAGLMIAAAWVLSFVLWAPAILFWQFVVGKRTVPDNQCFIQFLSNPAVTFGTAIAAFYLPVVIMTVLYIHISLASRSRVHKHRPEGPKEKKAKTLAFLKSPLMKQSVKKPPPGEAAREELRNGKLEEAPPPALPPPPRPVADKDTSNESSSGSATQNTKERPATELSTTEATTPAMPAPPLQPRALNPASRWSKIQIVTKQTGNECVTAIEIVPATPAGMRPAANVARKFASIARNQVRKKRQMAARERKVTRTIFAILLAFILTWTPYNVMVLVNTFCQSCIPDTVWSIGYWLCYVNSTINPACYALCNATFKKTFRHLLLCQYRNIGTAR
# [3] = Distribution in human whole blood fractions (LC-MS/MS); type: in vitro ADME
# Experimental: Twenty five mL healthy donor whole blood was collected in the presence of heparin. Human whole blood was added with Compound TA1-1B to reach final concentration of 3 uM. Whole blood was gently mized and incubated at 37° C. for 4 hrs. At the end of the incubation 0.5 mL blood was collected and centrifuge at 500×g to separate the platelet-rich plasma for further analysis.
# In order to isolate white blood cells, 5 ml of treated blood was subjected to Ficoll density gradient centrifugation. At the end of the centrifugation formed buffy coat containing most of the white blood cells and Ficolle fractions containing red blood cells and granulocites were collected separately. Obtained white cell fraction was washed with 5 ml of isotonic phosphate buffer and saved for further analysis. Obtained fractions were subjected to Compound TA1-1B quantitative analysis using LC-MS/MS. Fractions obtained from untreated whole blood were used as corresponding biological matrices in LC-MS/MS based bioanalysis.
# The most part of added compound (93.7%) was found in blood formed elements than in plasma indicating to a potentially high volume of distribution and good tissue penetration of compound TA1-1B.
# [4] = test system: κ-opioid (KOP) opioid receptor; test: Receptor binding
# H2-receptor = H2-receptor (Homo sapiens, UniProt P25021); test: Receptor binding
# H2-receptor, sequence (P25021 whole entry): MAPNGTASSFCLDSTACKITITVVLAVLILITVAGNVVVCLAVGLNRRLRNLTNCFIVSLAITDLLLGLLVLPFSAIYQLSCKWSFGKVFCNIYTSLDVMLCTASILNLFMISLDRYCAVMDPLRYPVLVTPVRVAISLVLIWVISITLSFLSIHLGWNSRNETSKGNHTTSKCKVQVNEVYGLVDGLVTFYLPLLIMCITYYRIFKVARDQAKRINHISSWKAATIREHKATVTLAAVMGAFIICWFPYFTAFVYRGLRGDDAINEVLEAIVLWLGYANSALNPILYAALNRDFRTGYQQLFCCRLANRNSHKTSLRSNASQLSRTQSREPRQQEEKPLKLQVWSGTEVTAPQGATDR
# [5] = TA1-1B in plasma, brain and tumor of HCT116 tumor-bearing mice; type: in vivo; settings: 25.0 mg/kg single IV dose; for concentration at 15 min / concentration at 2 h: female, NCr nu/nu, mouse; for concentration at 15 min: 15 min post-dose; for concentration at 2 h: two hour post-dose
# Source text: In vivo experiment protocols were approved by the Animal Use and Care Committee. Female NCr nu/nu mice were purchased from Taconic Farms and group housed in a ventilated rack system on a 12/12 light cycle. All housing materials and water were autoclaved prior to use. The mice were fed ad libitum with gamma-irradiated laboratory chow and acidified water. Animals were handled under laminar-flow hoods. Animals were inoculated subcutaneously in the right flank with 5×10̂6 HCT116 cells. Tumors were monitored twice weekly and then daily as they approached the appropriate size for study. On Day 1 of the study, the animals were randomized into n=3 treatment groups with group average tumor sizes of 109 mm^3.
# where w=width and 1=length in mm of the tumor. Tumor weight was estimated with the assumption that 1 mg is equivalent to 1 mm^3 of tumor volume. Mice were dosed with compound TA1-1B at 25.0 mg/kg (single IV dose). At fifteen min and two hour time points, plasma, brain and tumor samples were collected from terminal mice and frozen. It was determined that the tumor contained 0.86 μM, plasma contained 0.74 μM and brain contained 1.47 μM of the therapeutic agent after 15 min post-dose, and the tumor contained 1.6 μM, plasma contained 0.41 μM and brain contained 0.8 μM of the therapeutic agent after the two hour post-dose.
# [6] = 7.5 mg/kg intravenously (FIG. 3)
# [7] = 7.5 mg/kg intravenously, time point not stated, unit from FIG. 2 legend
# [8] = 3 uM, 37° C., 4 hrs, White cells
# [9] = brain, read-out: Concentration in brain
# [10] = plasma, read-out: Concentration in plasma
# [11] = tumor, read-out: Concentration in tumor
compound,measurement,setting,value
CN1CCC[C@H]1CCNC(=O)c1cn2c3c(c(N4CCC(c5cnccn5)C4)c(F)cc3c1=O)Oc1cc3ccccc3cc1-2 (stereo partly drawn) [TA1-1B],% inhibition @ 1 uM,[1],62%
same,Toxicity to bone marrow cells (RNA synthesis and cell viability),bone marrow cells (BMCs),not toxic
same,Exposure in adrenal glands and bone marrow relative to other tissues,[2]; [6],highest exposures
same,Retention in adrenal glands and bone marrow versus brain,[2]; [6],retains longer
same,Elimination from rat brain tissue,"[2]; 7.5 mg/kg intravenously QDx5, over 48 hr post-dose (FIG. 2)",almost completely eliminates
same,Concentration in brain tissue,[2]; [7],1600 nM
same,Concentration in plasma,[2]; [7],200 nM
same,Concentration in whole blood,[2]; [7],500 nM
same,inhibition at 1 µM,M2 Muscarinic receptor,92%
same,inhibition at 1 µM,M1 Muscarinic receptor,98%
same,inhibition at 1 µM,M4 Muscarinic receptor,87%
same,Mass balance Amount,"[3]; 3 uM added, 5 mL",14.7 nmol
same,Mass balance Conc.,"[3]; 3 uM added, 5 mL",2.95 µM
same,% of compound in plasma fraction,"[3]; 3 uM, 37° C., 4 hrs, Plasma",6.2%
same,Amount in plasma fraction,"[3]; 3 uM, 37° C., 4 hrs, Plasma",0.92 nmol
same,Conc. in plasma fraction,"[3]; 3 uM, 37° C., 4 hrs, Plasma",370 nM
same,% of compound in red cells fraction,"[3]; 3 uM, 37° C., 4 hrs, Red cells",81.5%
same,Amount in red cells fraction,"[3]; 3 uM, 37° C., 4 hrs, Red cells",12.0 nmol
same,Conc. in red cells fraction,"[3]; 3 uM, 37° C., 4 hrs, Red cells",4850 nM
same,Total amount in all fractions,"[3]; 3 uM, 37° C., 4 hrs, Total",14.7 nmol
same,% of compound in white cells fraction,[3]; [8],12.2%
same,Amount in white cells fraction,[3]; [8],1.8 nmol
same,Conc. in white cells fraction,[3]; [8],81790 nM
same,Part of added compound found in blood formed elements,"[3]; 3 uM, 37° C., 4 hrs, red and white cells versus plasma",93.7%
same,% inhibition @ 1 uM,[4],52%
same,inhibition at 1 µM,H2-receptor,48%
same,Blood-brain barrier permeation,[5]; heading of Example 3,Permeates the Blood-Brain Barrier
same,concentration at 15 min,[5]; [9],1470 nM
same,concentration at 2 h,[5]; [9],800 nM
same,concentration at 15 min,[5]; [10],740 nM
same,concentration at 2 h,[5]; [10],410 nM
same,concentration at 15 min,[5]; [11],860 nM
same,concentration at 2 h,[5]; [11],1600 nM
